How the values were obtained:
MDX-mice [1] = assay: Grip strength test (front-leg muscle strength) in MDX mice; assay type: in vivo; details: for GS/BW trial 5 / GS/BW trial 1 / Grip Strength trial 1 / Grip Strength trial 5: MDX-mice treated 16 weeks via chow (150 ppm BAY 41-2272 or 100 ppm Finerenone), Mean ± SEM; for GS/BW trial 5 / GS/BW trial 1: grip strength related to body weight; for GS/BW trial 5: fatigued mice; for GS/BW trial 1: rested mice; for Grip Strength trial 1: highest force from rested mice; for Grip Strength trial 5: highest force in fatigued mice; for Effect on muscle strength (grip strength), in words: MDX-mice treated 16 weeks, each compound alone; for Efficacy of monotherapy compared with combination of steroidal MR antagonist (spironolactone) and ACE inhibitor (lisinopril): regarding grip strength, base myocardial strain rate and forces after lengthening contractions of the EDL, comparator from Lowe et al.
Excerpt: (§1) Preferentially mice were used, especially transgenic mice (B6.Cg-^Terctm1Rdp Dmd^mdx-4Cv/BlauJ; Jackson Laboratories, strain Nr.: 023535; Dystrophin-deficient, utrophin haplo-insufficient (utrn +/−; mdx)). These so called MDX mice carry a mutation in the dystrophin gene which reflects the phenotype and clinical situation of patients with muscular dystrophies (Sacco et al.; Cell. 2010 Dec. 23; 143(7):1059-71, Mourkioti et al. Nat Cell Biol. 2013 August; 15(8):895-904).
(§2) As read-outs were preferentially used: • In vitro, hydroxyproline measurement to assess fibrotic tissue. To analyze the collagen content in tissue samples, hydroxyproline assays were performed. After digestion of the tissue (e.g. heart and muscle) in 6M HCl for three hours at 120° C., chloramine T (0.06 M) was added and samples were mixed and incubated for 20 min at room temperature. 3.15 M perchloric acid and 20% p-dimethylaminobenzaldehyde were added and samples were incubated for additional 20 min at 60° C. The absorbance was determined at 557 nm. • In vitro, semiquantitative RT/PCR (TaqMan PCR) was used to assess gene expression. Mice were euthanized and hearts and muscles (e.g. EDL=extensor digitorum longus muscle, diaphragm) were collected. Total RNA was isolated and gene expression was semiquantified after reverse transcription (RT) reaction via TaqMan polymerase chain reaction (PCR). • In vitro, histopathology to assess heart and muscle damage. Mice were euthanized and hearts and muscles (e.g. EDL, diaphragm) were collected. Cryosections were prepared and stained with Hematoxylin and Eosin (H&E) to assess overall histopathology. • Ex vivo, contractility measurements of muscle contraction in isolated muscles (e.g. EDL, diaphragm) to assess muscle function and contractility. Isolated muscles were stretched to optimal length using twitch contractions (evoked by a single 4 ms pulse). After 10 minutes, a tetanus contraction was performed (150 Hz for 250 ms). After another 5 min rest period, 6 eccentric contractions (150 Hz for 450 ms, subjected to a 3% stretch for the final 200 ms of contraction) were done with two minutes of rest between the first 5 stimulations and 15 minutes of rest between the fifth and sixth stimulation. • In vivo, non-invasive echocardiography and computer tomography to assess heart and cardiovascular function. Mice were anaesthetized and heart structure and function was assessed non-invasively by using the echocardiograph type Vevo2100. In addition, cardiac function was investigated in anesthetized mice by using magnetic resonance imaging (MRI) technique on a 9.4 or 11.7 Tesla 30 mm bore system (Bruker Biospin) together with standard electrocardiographic (ECG). Myocardial strain and strain rate were assessed using vector-based tracking software (Vector Velocity Imaging, Siemens). • In vivo, invasive left-ventricular function and pressure-volume relationship to assess heart and cardiovascular function. Invasive left-ventricular hemodynamics were performed in anaesthetized mice using a pressure catheter and a PN loop catheter. • In vivo assessment of muscle force (Hanging wire test, four limb hanging test, grip strength test) to asses muscle function. For the hanging wire and four limb hanging test, conscious mice are freely hanging on a grid and hanging time is recorded and corrected for body weight of the mice. The grip strength (GS) measurements to investigate front-leg muscle strength were performed in conscious mice by using a grip strength meter (Columbus Instruments). Mice were trained to hold on with their front paws on a wire mesh grid and carefully pulled backwards. This procedure was repeated up to 5 times with one minute breaks between measurements and the maximal power in Newton (N) was registered. The highest grid strength value (GS) in Newton was reported and related to body weight (BW) in mg. […] (Table 1). • In vivo assessment of physical capacity was assessed. […]

MDX-mice [2] = assay: Endocardial circumferential peak systolic strain rate at the base of the heart (MRI, vector-based tracking); assay type: in vivo; details: for Effect on heart function (systolic strain rate), in words: MDX-mice treated 16 weeks; for Base_PeakSysSR_Lat (endocardial circumferential S−1) / Base_PeakSysSR_Mean (endocardial circumferential S−1) / Base_PeakSysSR_Septum (endocardial circumferential S−1): MDX-mice treated 16 weeks via chow (150 ppm BAY 41-2272 or 100 ppm Finerenone), base of the heart, Mean ± SEM; for Base_PeakSysSR_Lat (endocardial circumferential S−1): lateral; for Base_PeakSysSR_Mean (endocardial circumferential S−1): mean; for Base_PeakSysSR_Septum (endocardial circumferential S−1): septum
Excerpt: as §1, §2

MDX-mice [3] = assay: EDL eccentric contractions (ex vivo contractility of isolated muscle from treated mice); assay type: in vivo; details: for Ecc2 (% Ecc1) / Ecc5 (% Ecc1) / Post-rest Ecc6 (% Ecc1): EDL of MDX-mice treated 16 weeks via chow (150 ppm BAY 41-2272 or 100 ppm Finerenone), Mean ± SEM; for Ecc2 (% Ecc1): 2nd eccentric contraction; for Ecc5 (% Ecc1): 5th eccentric contraction; for Post-rest Ecc6 (% Ecc1): 6th eccentric contraction after 15 minutes of rest; for Effect on muscle strength (EDL eccentric contractions), in words: MDX-mice treated 16 weeks
Excerpt: as §1, §2

[4] = rats, [14C]-labeled; Kolkhof et al. 2014; cited from earlier work
DMD boys = details: added to background ACE inhibitor or ARB therapy; at 12 months; Raman et al. 2015; cited from earlier work

For `Nc1nc(-c2nn(Cc3ccccc3F)c3ncccc23)ncc1C1CC1` [BAY41-2272, 3-(4-amino-5-cyclopropylpyrimidin-2-yl)-1-(2-fluorobenzyl)-1H-pyrazolo[3,4-b]pyridine], the GS/BW trial 5 (MDX-mice [1]) was 33.9 ± 0.9 mN/g, the GS/BW trial 1 (MDX-mice [1]) was 38.3 ± 1.1 mN/g and the “Grip Strength trial 1” value (MDX-mice [1]) was 1.0 ± 0.04 N. The “Grip Strength trial 5” value (MDX-mice [1]) was 0.9 ± 0.04 N, the “Effect on muscle strength (grip strength), in words” value (MDX-mice [1]) was “improvement of muscle strength” and the “Effect on heart function (systolic strain rate), in words” value (MDX-mice [2]) was “attenuation of heart function decline”. For the same compound, the “Base_PeakSysSR_Lat (endocardial circumferential S−1)” value (MDX-mice [2]) was 0.37 ± 0.02 S−1, the “Base_PeakSysSR_Mean (endocardial circumferential S−1)” value (MDX-mice [2]) was 0.36 ± 0.02 S−1 and the “Base_PeakSysSR_Septum (endocardial circumferential S−1)” value (MDX-mice [2]) was 0.39 ± 0.03 S−1. The “Ecc2 (% Ecc1)” value (MDX-mice [3]) was 86 ± 2 % Ecc1, the “Ecc5 (% Ecc1)” value (MDX-mice [3]) was 60 ± 5 % Ecc1 and the “Post-rest Ecc6 (% Ecc1)” value (MDX-mice [3]) was 60 ± 5 % Ecc1. For the same compound, the “Effect on muscle strength (EDL eccentric contractions), in words” value (MDX-mice [3]) was “improvement of muscle strength”.

With `CCOc1ncc(C)c2c1[C@H](c1ccc(C#N)cc1OC)C(C(N)=O)=C(C)N2` [Finerenone, (S)-4-(4-Cyano-2-methoxyphenyl)-5-ethoxy-2,8-dimethyl-1,4-dihydro-1,6-naphthyridin-3-carboxamid] the GS/BW trial 5 (MDX-mice [1]) was 37.5 ± 1.1 mN/g, the GS/BW trial 1 (MDX-mice [1]) was 40.3 ± 1 mN/g and the “Grip Strength trial 1” value (MDX-mice [1]) was 1.1 ± 0.04 N. For the same compound, the “Grip Strength trial 5” value (MDX-mice [1]) was 1.1 ± 0.04 N, the “Effect on muscle strength (grip strength), in words” value (MDX-mice [1]) was “improvement of muscle strength” and the “Efficacy of monotherapy compared with combination of steroidal MR antagonist (spironolactone) and ACE inhibitor (lisinopril)” value (MDX-mice [1]) was “superior”. The “Efficacy of monotherapy compared with combination of steroidal MR antagonist (spironolactone) and ACE inhibitor (lisinopril)” value (MDX-mice [1]; listed as (S)-4-(4-Cyano-2-methoxyphenyl)-5-ethoxy-2,8-dimethyl-1,4-dihydro-1,6-naphthyrid) was “as effective as”, the “Effect on heart function (systolic strain rate), in words” value (MDX-mice [2]) was “attenuation of heart function decline” and the “Base_PeakSysSR_Lat (endocardial circumferential S−1)” value (MDX-mice [2]) was 0.39 ± 0.04 S−1. The “Base_PeakSysSR_Mean (endocardial circumferential S−1)” value (MDX-mice [2]) was 0.35 ± 0.03 S−1, the “Base_PeakSysSR_Septum (endocardial circumferential S−1)” value (MDX-mice [2]) was 0.34 ± 0.04 S−1 and the “Ecc2 (% Ecc1)” value (MDX-mice [3]) was 94 ± 5 % Ecc1. The “Ecc5 (% Ecc1)” value (MDX-mice [3]) was 71 ± 7 % Ecc1, the “Post-rest Ecc6 (% Ecc1)” value (MDX-mice [3]) was 72 ± 6 % Ecc1 and the “Effect on muscle strength (EDL eccentric contractions), in words” value (MDX-mice [3]) was “improvement of muscle strength”. The “Tissue distribution into cardiac and kidney tissues” value [4] was “balanced distribution”.

In the case of `COC(=O)[C@@H]1CC2=CC(=O)CC[C@]2(C)[C@@]23O[C@@H]2C[C@@]2(C)[C@@H](CC[C@@]24CCC(=O)O4)[C@H]13` [eplerenone], the “Effect on left ventricular systolic function (LV circumferential strain)” value (DMD boys) is given as “attenuates the progressive decline in left ventricular systolic function”.

From patent US11439628B2, “Use of non-steroidal mineralocorticoid receptor antagonists alone or in combination for the treatment of muscular or neuromuscular diseases” (Bayer Aktiengesellschaft, priority 2018, dated 2022)
